Laboratory results as given in patent US4645772A, “Levorotatory enantiomers of derivatives of 5,6,13,13a-tetrahydro-8H-dibenzo [A,G]quinolizine, preparative process, pharmaceutical compositions containing them and application” (Urpha, priority 1982, dated 1987).
“Also recorded” adds a separate entry of the source. Where two headings read alike, the source gives them in different places.

What was measured:
α2 adrenergic receptors = molecular target: T1, α2 adrenergic receptors (Rattus norvegicus, UniProt P22909); experiment: Binding to α2 adrenergic receptors (3H-yohimbin), rat cerebral cortex homogenate; conditions: for Ki: SPECIFIC BINDING, Kl, α 2, 3H-yohimbin, average of three assays
T1 construct: from tissue; host or cells: rat cerebral cortex homogenate
T1 sequence (P22909 1-465): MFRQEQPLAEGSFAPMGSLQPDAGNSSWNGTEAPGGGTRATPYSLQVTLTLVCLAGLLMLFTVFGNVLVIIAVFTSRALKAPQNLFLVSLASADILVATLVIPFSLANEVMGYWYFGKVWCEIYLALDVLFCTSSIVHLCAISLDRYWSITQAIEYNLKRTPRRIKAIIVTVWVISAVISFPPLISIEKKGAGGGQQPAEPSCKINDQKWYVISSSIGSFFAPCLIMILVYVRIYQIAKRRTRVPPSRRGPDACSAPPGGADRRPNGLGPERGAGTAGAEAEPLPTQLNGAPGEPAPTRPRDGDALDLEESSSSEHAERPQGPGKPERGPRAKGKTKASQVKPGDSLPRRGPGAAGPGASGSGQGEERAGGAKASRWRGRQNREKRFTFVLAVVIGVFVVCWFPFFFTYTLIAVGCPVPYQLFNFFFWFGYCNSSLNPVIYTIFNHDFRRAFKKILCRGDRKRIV
Description: (§1) The tests were carried out on rat cerebral cortex homogenate, according to the method described by P. Greengross and R. Bremmerclaus, Eur. J. Pharmacol. (1979) 55 323-326.
(§2) The results represent the average of the three assays. The Ki values were calculated according to Cheng and Prussoff (Biochem. Parmacol. 1973 22 3099-3108).

[1] = molecular target: T2, α-adrenergic receptor / phenylephrine contraction of isolated rat aorta (Rattus norvegicus, UniProt P23944); experiment: Antagonism of phenylephrine on the isolated rat aorta (α-blocking activity, Schild analysis); conditions: for type of antagonism against phenylephrine / affinity for the adrenergic receptor: isolated rat aorta; for r (correlation coefficient of the straight line): Schild's straight line; for r (correlation coefficient of the straight line) / n (slope of Schild's straight line) / Kb: against phenylephrine; for Kb: Schild's relation, read-out: pA2 (converted); for affinity for the adrenergic receptor: in words
T2 construct: phenylephrine on the isolated rat aorta; from tissue; host or cells: isolated rat aorta
T2 sequence (P23944 1-561): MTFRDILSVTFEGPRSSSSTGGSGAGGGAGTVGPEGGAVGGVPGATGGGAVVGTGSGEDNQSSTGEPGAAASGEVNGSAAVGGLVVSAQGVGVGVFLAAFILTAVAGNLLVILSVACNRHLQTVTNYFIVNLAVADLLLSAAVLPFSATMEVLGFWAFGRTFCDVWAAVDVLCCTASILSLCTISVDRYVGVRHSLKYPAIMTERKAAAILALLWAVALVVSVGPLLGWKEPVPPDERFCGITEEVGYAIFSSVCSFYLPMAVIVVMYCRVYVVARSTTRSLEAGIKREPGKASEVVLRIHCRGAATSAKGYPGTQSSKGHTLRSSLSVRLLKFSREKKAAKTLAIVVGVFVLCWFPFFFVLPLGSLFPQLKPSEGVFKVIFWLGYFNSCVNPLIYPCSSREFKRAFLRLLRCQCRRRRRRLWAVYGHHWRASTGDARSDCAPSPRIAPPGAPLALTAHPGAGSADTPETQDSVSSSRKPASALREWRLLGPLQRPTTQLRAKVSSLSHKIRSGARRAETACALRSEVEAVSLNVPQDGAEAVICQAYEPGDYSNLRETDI
From the text: (2) Study of α-blocking activity: study of the antagonism between the derivatives of Berbine and phenylephrine on the isolated rat aorta
The quantitative evaluation of the antagonism between the derivatives to be tested and phenylephrine was made by analysis to effect-concentration relationships in the presence and absence of antagonist and the PA2 values calculated with Schild's relation (Arunlasksha na O. and Schild H. P., Br. J. Pharmacol., 1959, 14, 48-58). […] In FIG. 2 the E effect (% of maximum contraction) in the absence and presence of STB 6 (-) is given in the ordinate, and the abscissa gives the log of the phenylephrine concentration. The different curves relate to the following concentrations:
FIG. 2b is the Schild representation (x being the ratio of phenylephrine concentrations which gives a 50% response in the presence and in the absence of STB 6 (-)). On the ordinate are Log (x-1) and on the abscissa Log [(-) STB 6].
The parameters of Schild's relation were also measured in the presence of STB 52 (-) in the same experimental conditions as for STB 6 (-).

normotensive rat = experiment: Hypotensive activity in the anesthetized normotensive rat; assay type: in vivo; conditions: for effect on blood pressure: 15 minutes after i.v. administration
Description: The study was carried out in the normotensive rat anesthetized with pentothal (40 mg.kg^-1 i.p.). The blood pressure was measured with a catheter placed in the carotid artery and linked to a pressure cell (Statham p 23 DB) and to a recorder according to the method described by Waeldele and Stoclet (J. Pharmacol. Paris 1973, 66, 357-366). The derivatives were administered in increasing doses every 15 minutes by intravenous injection (i.v.).
Each point is the average of the values obtained in n aminals ±standard error.
In FIG. 1 the abscissae show the quantities administered of the compound to be tested, and the ordinates show the average blood pressure ΔP mm Hg.

[2] = system: mesenteric territory, electrical stimulation of the sympathetic nerves; experiment: Inhibition of sympathetic excitation in vivo: vasoconstriction of perfused mesenteric territory by electrical stimulation of sympathetic nerves; conditions: i.v. 0.5 mg.kg^-1; 7 Hz; rat
Description: (§3) This study was made for the most hypotensive derivative, STB 6. The vascular reactivity of the mesenteric territory perfused in situ in the rat was measured (according to Jackson and Campbell, Eur. J. Pharmacol., 1980, 66, 217-224). After anesthetizing of the rat with pentothal (40 mg.kg^-1 i.p.) the mesenteric territory was perfused at constant flow from a catheter diverting the blood stream of the abdominal aorta. The vasoconstrictor activity resulting from periarterial electrical excitation of the sympathetic nerves (7 Hz) and […] was measured. The activities of the Berbine derivatives administered intravenously were determined for the two types of pressure response. The results obtained are shown in FIGS. 4a and 4b in which the average blood pressure ΔP mm Hg is plotted on the ordinates and time plotted on the abscissae, the injection of the product to be tested or of the placebo (constituted by the same volume of physiological serum) being at time 0.
(§4) FIG. 4a relates to the vasoconstriction caused by electrical stimulation and FIG. 4b to that caused by noradrenalin.

α1 adrenergic receptors = experiment: Binding to α1 adrenergic receptors (3H-prazosin), rat cerebral cortex homogenate; conditions: for Ki: read-out: SPECIFIC BINDING, Kl, α 1, 3H-prazosin, average of three assays; for affinity for the α1 receptor with respect to the α2 receptor: in words, comparison of α1 and α2 binding
Description: as §1, §2

[3] = system: mesenteric territory, noradrenalin; experiment: Vasoconstriction of perfused mesenteric territory caused by noradrenalin; assay type: in vivo; conditions: i.v. 0.5 mg.kg^-1; noradrenalin 200 ng; rat
Description: as §3, §4

[4] = cat; cited from earlier work
[5] = dog; cited from earlier work
[6] = Toxicity in the mouse (LD50); conditions: in vivo, male mice
Description: The LD50 was determined in the mouse. The derivatives to be tested were administered in aqueous solution containing 7% dimethylformamide, by esophageal forced feeding of 0.4 ml per 20 g of body weight, to male mice weighing 20 to 25 g.

hypertensive patients = conditions: cited from earlier work
[7] = system: hypertensive effects of adrenalin; conditions: dog; cited from earlier work

^3 H-yohimbin [3H-yohimbin, reference compound]
maximum binding, α2 receptors (α2 adrenergic receptors; radioligand): 172.5±49.9 fmoles.mg protein^-1 | Kd (α2 adrenergic receptors; read-out: KD of ligand, α2 receptors): 10.2 nM

COc1cc2c(cc1OC)CN1CCc3cc(O)ccc3C1C2 (single isomer, unassigned; (+)) [(+) STB 6, 10,11-dimethoxy-3-hydroxy-5,6,13,13a-tetrahydro-8H-dibenzo-[a,g]-quinolizine]
type of antagonism against phenylephrine [1]: non-competitive antagonism against phenylephrine; also recorded: non-competitive antagonist of phenylephrine | effect on blood pressure (normotensive rat): do not induce a significant decrease in blood pressure | Ki (α2 adrenergic receptors): 901 ± 299 nM | effect on vasoconstriction / pressure response caused by electrical stimulation of the sympathetic nerves [2]: does not have a significant activity; also recorded: devoid of this activity at the same doses | Ki (α1 adrenergic receptors; rat cerebral cortex homogenate): 2930 ± 363 nM

Oc1ccc2c(c1)CCN1Cc3ccccc3CC21 (single isomer, unassigned; (+)) [(+) STB 4, 3-hydroxy-5,6,13,13a-tetrahydro-8H-dibenzo-[a,g]-quinolizine]
effect on blood pressure (normotensive rat): do not induce a significant decrease in blood pressure | Ki (α2 adrenergic receptors): 321 ± 72 nM | Ki (α1 adrenergic receptors; rat cerebral cortex homogenate): 1220 ± 175 nM

COC(=O)[C@@H]1[C@H]2C[C@H]3c4[nH]c5ccccc5c4CCN3C[C@@H]2CC[C@@H]1O [Yohimbin]
Ki (α1 adrenergic receptors; rat cerebral cortex homogenate): 322 ± 26 nM

Oc1ccc2c(c1)CCN1Cc3ccccc3CC21 (single isomer, unassigned; (-)) [(-) STB 4, 3-hydroxy-5,6,13,13a-tetrahydro-8H-dibenzo-[a,g]-quinolizine]
effect on blood pressure (normotensive rat): significant drop in blood pressure | dose at which active on blood pressure (normotensive rat; i.v.): 1 mg/kg | Ki (α2 adrenergic receptors): 307 ± 118 nM | Ki (α1 adrenergic receptors; rat cerebral cortex homogenate): 462 ± 10 nM

COc1cc2c(cc1OC)CN1CCc3cc(O)ccc3C1C2 (single isomer, unassigned; (-)) [(-) STB 6, 10,11-dimethoxy-3-hydroxy-5,6,13,13a-tetrahydro-8H-dibenzo-[a,g]-quinolizine]
r (correlation coefficient of the straight line) [1]: 0.99 | n (slope of Schild's straight line) [1]: 0.93 | Kb [1]: 39.8 nM | type of antagonism against phenylephrine [1]: competitive | affinity for the adrenergic receptor [1]: strong affinity for the adrenergic receptor | effect on blood pressure (normotensive rat): significant drop in blood pressure | dose at which active on blood pressure (normotensive rat; i.v.): 1 mg/kg | hypotensive activity, rank among the derivatives studied (normotensive rat; i.v.): the most hypotensive of the derivatives studied | effect on pressure response due to noradrenalin injection [3]: without modifying the pressure response due to noradrenalin injection | Ki (α2 adrenergic receptors): 1020 ± 335 nM | effect on vasoconstriction / pressure response caused by electrical stimulation of the sympathetic nerves [2]: decreases the vasoconstriction of the mesenteric territory caused by the electrical stimulation of the sympathetic nerves; also recorded: reduces the pressure response to sympathetic excitation | affinity for the α1 receptor with respect to the α2 receptor (α1 adrenergic receptors): strong affinity for the α1 receptor, with respect to that for the α2 receptor | Ki (α1 adrenergic receptors; rat cerebral cortex homogenate): 419 ± 132 nM

c1ccc2c(c1)CC1c3ccccc3CCN1C2 (single isomer, unassigned) [Berbine (-), 5,6,13,13a-tetrahydro-8H-dibenzo[a,g]quinolizine]
Ki (α2 adrenergic receptors): 140 ± 44 nM | sympatholytic activity [4]: strong sympatholytic activity | sympatholytic activity [5]: strong sympatholytic activity | affinity for the α1 receptor with respect to the α2 receptor (α1 adrenergic receptors): comparable affinities for the α1 and α2 receptors | Ki (α1 adrenergic receptors; rat cerebral cortex homogenate): 212 ± 26 nM

COc1cc2c(cc1OC)CN1CCc3cc(OC(=O)Cc4ccccc4)ccc3C1C2 (single isomer, unassigned; (-)) [(-) STB 52, 10,11-dimethoxy-3-phenacetyloxy-5,6,13,13a-tetrahydro-8H-dibenzo-[a,g]-quinolizine]
r (correlation coefficient of the straight line) [1]: 0.99 | n (slope of Schild's straight line) [1]: 1.00 | Kb [1]: 100 nM | type of antagonism against phenylephrine [1]: as competitive an antagonist of phenylephrine as (-) STB 6 | affinity for the adrenergic receptor [1]: strong affinity for the adrenergic receptor | LD50 ([6]; oral (esophageal forced feeding), 7% dimethylformamide in water): > 800 mg/kg | mortality ([6]; oral, 800 mg.kg^-1 (limit of solubility)): 30%

c1ccc2c(c1)CC1c3ccccc3CCN1C2 (single isomer, unassigned) [Berbine (+), 5,6,13,13a-tetrahydro-8H-dibenzo[a,g]quinolizine]
Ki (α2 adrenergic receptors): 569 ± 137 nM | affinity for the α1 receptor with respect to the α2 receptor (α1 adrenergic receptors): comparable affinities for the α1 and α2 receptors | Ki (α1 adrenergic receptors; rat cerebral cortex homogenate): 4730 ± 538 nM

COc1cc2nc(N3CCN(C(=O)c4ccco4)CC3)nc(N)c2cc1OC [3H-prazosin, ^3 H-prazosin]
maximum binding, α1 receptors (α1 adrenergic receptors; radioligand, rat cerebral cortex homogenate): 200±21 fmoles.mg protein^-1

c1ccc2c(c1)CC1c3ccccc3CCN1C2 (stereo not shown) [Berbine, 5,6,13,13a-tetrahydro-8H-dibenzo[a,g]quinolizine]
hypotensive activity (hypertensive patients): hypotensive activity | effect on hypertensive effects of adrenalin [7]: reverses the hypertensive effects of adrenalin
